Patent US4032529A, “Aminomethanobenzazocine intermediates” (Sterling Drug Inc., priority 1975, dated 1977)
Counter-ions that a name gives are not always drawn.

Tested on: acetylcholine-induced writhing in mice
Assay: acetylcholine writhing test, a primary screening test for analgesia
Format: in vivo
Details: Mus musculus, sc, 20 min; subcutaneous; mice dosed 20 minutes prior to acetylcholine 3.2 mg./kg. intraperitoneal; 2-minute observation; probit analysis
Protocol: All of the compounds of Formula I of the examples were tested and determined to be active in the acetylcholine writhing test, a primary screening test for analgesia. In this test the ability of test compounds to prevent acetylcholine-induced writhing in mice is determined. The following is an adaptation of the method of Collier and co-workers (Brit. J. Pharmacol. Chemother., 32, 295(1968)) by Anne K. Pierson. […] The mice are dosed with the test compound plus vehicle or vehicle alone (controls) 20 minutes prior to, and are observed for 2 minutes after, the acetylchloine injection. During the 2-minute observation period mice not responding by writhing are scored protected and mice responding by writhing one or more times are scored not protected. The mice are dosed orally (usually at 150-200 mg./kg.) or subcutaneously (usually at 75-100 mg./kg.). Fifteen mice per does level are used. ED50 values for active compounds are calculated by probit analysis (C. I. Bliss, The Statistics of Bioassay, Academic Press, New York, 1952) of quantal scores of tests at four or more appropriate dose levels. The following subcutaneous ED50 values for the compounds of Formula I of the examples were determined.

SMILES | ED50 [mg/kg]
C[C@@H]1[C@@H]2Cc3ccc(N)cc3[C@@]1(C)CCN2CC1CC1 (relative stereo) [Example 1B, 8-amino-3-(cyclopropylmethyl)-1,2,3,4,5,6-hexahydro-cis-6,11-dimethyl-2,6-methano-3-benzazocine dihydrochloride] | 0.8
C[C@@H]1[C@@H]2Cc3ccc(NCC4CC4)cc3[C@@]1(C)CCN2CC1CC1 (relative stereo) [Example 2E, 3-(cyclopropylmethyl)-8-(cyclopropylmethylamino)-1,2,3,4,5,6-hexahydro-cis-6,11-dimethyl-2,6-methano-3-benzazocine hydrochloride] | 0.7
CNc1ccc2c(c1)[C@@]1(C)CCN(CC3CC3)[C@@H](C2)[C@H]1C (relative stereo) [Example 3B, 3-(cyclopropylmethyl)-1,2,3,4,5,6-hexahydro-cis-6,11-dimethyl-8-(methylamino)-2,6-methano-3-benzazocine dihydrochloride ethanolate hydrate] | 0.44
C[C@@H]1[C@@H]2Cc3ccc(N(C)C)cc3[C@@]1(C)CCN2CC1CC1 (relative stereo) [Example 4F, 3-cyclopropylmethyl-8-dimethylamino-cis-6,11-dimethyl-1,2,3,4,5,6-hexahydro-2,6-methano-3-benzazocine dihydrochloride] | 0.79
CC(C)CN1CC[C@]2(C)c3cc(N)ccc3C[C@H]1[C@H]2C (relative stereo) [Example 5C, 8-amino-1,2,3,4,5,6-hexahydro-3-isobutyl-cis-6,11-dimethyl-2,6-methano-3-benzazocine dihydrochloride] | 1.5
CCCN1CC[C@]2(C)c3cc(N)ccc3C[C@H]1[C@H]2C (relative stereo) [Example 6C, 8-amino-cis-6,11-dimethyl-1,2,3,4,5,6-hexahydro-3-propyl-2,6-methano-3-benzazocine dihydrochloride sesquihydrate] | 5.6
C[C@@H]1[C@@H]2Cc3ccc(NCc4ccccc4)cc3[C@@]1(C)CCN2CC1CC1 (relative stereo) [Example 7, 3-(cyclopropylmethyl)-1,2,3,4,5,6-hexahydro-cis-6,11-dimethyl-8-benzylamino-2,6-methano-3-benzazocine dihydrochloride] | 1.6
C=CCN1CC[C@]2(C)c3cc(N)ccc3C[C@H]1[C@H]2C (relative stereo) [Example 8C, 8-amino-1,2,3,4,5,6-hexahydro-cis-6,11-dimethyl-3-(2-propenyl)-2,6-methano-3-benzazocine dihydrochloride] | 2.5
CCNc1ccc2c(c1)[C@@]1(C)CCN(CC3CC3)[C@@H](C2)[C@H]1C (relative stereo) [Example 9B, 3-(cyclopropylmethyl)-8-(ethylamino)-1,2,3,4,5,6-hexahydro-cis-6,11-dimethyl-2,6-methano-3-benzazocine] | 1.3
CCCNc1ccc2c(c1)[C@@]1(C)CCN(CC3CC3)[C@@H](C2)[C@H]1C (relative stereo) [Example 10B, 3-(cyclopropylmethyl)-1,2,3,4,5,6-hexahydro-cis-6,11-dimethyl-8-(propylamino)-2,6-methano-3-benzazocine] | 1.2
CCCCNc1ccc2c(c1)[C@@]1(C)CCN(CC3CC3)[C@@H](C2)[C@H]1C (relative stereo) [Example 11B, 8-(butylamino)-3-(cyclopropylmethyl)-1,2,3,4,5,6-hexahydro-cis-6,11-dimethyl-2,6-methano-3-benzazocine] | 1
CC[C@@H]1[C@@H]2Cc3ccc(N)cc3[C@@]1(CC)CCN2CC1CC1 (relative stereo) [Example 12H, 8-amino-3-(cyclopropylmethyl)-cis-6,11-diethyl-1,2,3,4,5,6-hexahydro-2,6-methano-3-benzazocine dihydrochloride] | 1.3
